The values that follow are results of earlier work, collected in article PMC3671928 (Analytical chemistry, 2013).

The IC50 is the concentration needed to halve the response being measured.

The target of data set [1] is puromycin-sensitive aminopeptidase (PuSA). As to conditions: read-out: IC50, puromycin-sensitive aminopeptidase (PuSA).
The target of data set [2] is leucine aminopeptidase (LAP). To be noted: read-out: IC50, leucine aminopeptidase (LAP).
The subject of another data set is peptidase activity. To be noted: 1 μM applied to cells for 24 h.
In a further data set the target is aminopeptidase N. As to conditions: read-out: IC50, aminopeptidase N.
In another data set the test system is U937 cells. As to conditions: prolonged exposure to 1 μM.

With `CC(C)C[C@@H](C(=O)N[C@H](C(=O)OC1CCCC1)c1ccccc1)[C@H](O)C(=O)NO` [Tosedostat], the IC50 in data set [1] was 150 nM; in data set [2], 100 nM; on aminopeptidase N, 220 nM. In the data set on peptidase activity, the “inhibition of fragmentation of a fluorogenic substrate” value was “approximately 50%”. The “effect on proliferation of U937 cells” value in the data set on U937 cells was “substantially inhibits proliferation”.
